According to US7829296B2, “Kinesin polypeptides, polynucleotides encoding same and compositions and methods of using same” (Ramot at Tel-Aviv University Ltd., priority 2005, dated 2010):

What was measured:
ERK1/2 in MBA-15 cells [1] = assay: Estrogen signaling, ERK1/2 pathway: Western blot for pERK1/2 on whole cell lysates; type: cell-based; conditions: FIG. 16A; for 17βE2-induced increase of pERK1/2 after pretreatment: then 10^−8M 17β-estrogen five minutes
Experimental: Western blot analysis and Immunoprecipitation: Cells were harvested from cultures, washed twice with ice-cold PBS and collected in presence of protease inhibitors (Phenylmethylsulfonyl fluoride PMSF, 1 mM; 1-Chloro-3-tosylamido-4-phenyl-2-butanone, TPCK, 10 μg/ml; Aprotinin, 10 μg/ml (Sigma, USA) and phosphatase inhibitor cocktails I and II (Sigma, USA). Samples were spun down at 1500 rpm for 4 minutes and pellets were reconstituted in lyses buffer (50 mM Tris pH 7.5, 150 mM NaCl, 1% NP-40, and protease and phosphatase inhibitors, as above). Following a 20 minute incubation at 4° C., samples were centrifuged at 16,000 g for 5 minutes.
(§1) For Western blot, the membranes were blocked with 5% BSA in TBST (50 mM Tris, pH-7.5, 150 mM NaCl, 0.1% Tween-20, Sigma, USA) for 1 hour at RT or overnight and than incubated with anti-MS-KIF18A. The membranes were washed with TBST and incubated with goat anti-rabbit or goat anti-mouse conjugated to biotin (Dako, Denmark) for 40 minutes at RT and Extravidin-Peroxidase (Sigma, USA) for detection with chemiluminescent substrate (Pierce, USA).
(§2) Estrogen signaling, ERK1/2 pathway: MBA-15 cells were maintained in medium supplemented with 3% charcoal striped FCS for 48 hours prior to the start of the experiment. On the day of the experiment, the cells were pretreated with 25 μM MAPK inhibitor, PD98059 (Calbiochem, USA) and an estrogen antagonist ICI 182,780 10^−6M (Tocris, USA) for 45 minutes. 10^−8M 17β-estrogen (Sigma, USA) was added for five minutes. Cell lysates were used for immunoprecipitation and analyzed by Western blot.
(§3) Immunoprecipitation, Western blot, SDS-PADE gel: All experiments were performed as described in Example 1. Primary antibodies included anti-MS-KIF18A, anti-ER antibodies (Upstate Biotechnologies, USA) or SRA-1010 (Stressgen, Canada), anti-ERK1/2, pERK1/2 (Sigma, USA) or anti-His-tag (Santa Cruz Biotechnologies, USA). For detection a secondary antibody conjugated to biotin-extravidine-peroxidase and chemiluminescent substrate was used (Pierce, USA).

ERK1/2 in MBA-15 cells [2] = assay: pERK1/2 in anti-MS-KIF18A immunoprecipitates (MS-KIF18A-ERα complex), Western blot; type: cell-based; conditions: for ERK activation in anti-MS-KIF18A immunoprecipitate after pretreatment: then 17β-estrogen
Experimental: (§4) For immunoprecipitation (IP), anti-MS-KIF18A and protein-A sepharose beads (Sigma, USA) were added to lysates and samples were incubated overnight at 4° C. Immunocomplexes were precipitated at 16,000 g for 1 minute and washed 4 times with lyses buffer. The washed beads were re-suspended in Lamelli sample buffer and boiled for 3 minutes. The proteins were separated on 8% SDS-PAGE gel for 2 hours and transferred to nitrocellulose for 1.5 hours.
as §1, §2, §3

ERα 66 kDa = target: T1, ERα 66 kDa (Homo sapiens, UniProt P03372); assay: Co-immunoprecipitation of co-transfected His-MS-KIF18A and ERα 66 kDa in COS-7 cells; type: binding; conditions: COS-7 cells co-transfected with His-MS-KIF18A and ERα 66 kDa, FIGS. 14A-B
T1 construct: expressed in transfected cells; host or cells: COS-7
T1 sequence (P03372 1-595): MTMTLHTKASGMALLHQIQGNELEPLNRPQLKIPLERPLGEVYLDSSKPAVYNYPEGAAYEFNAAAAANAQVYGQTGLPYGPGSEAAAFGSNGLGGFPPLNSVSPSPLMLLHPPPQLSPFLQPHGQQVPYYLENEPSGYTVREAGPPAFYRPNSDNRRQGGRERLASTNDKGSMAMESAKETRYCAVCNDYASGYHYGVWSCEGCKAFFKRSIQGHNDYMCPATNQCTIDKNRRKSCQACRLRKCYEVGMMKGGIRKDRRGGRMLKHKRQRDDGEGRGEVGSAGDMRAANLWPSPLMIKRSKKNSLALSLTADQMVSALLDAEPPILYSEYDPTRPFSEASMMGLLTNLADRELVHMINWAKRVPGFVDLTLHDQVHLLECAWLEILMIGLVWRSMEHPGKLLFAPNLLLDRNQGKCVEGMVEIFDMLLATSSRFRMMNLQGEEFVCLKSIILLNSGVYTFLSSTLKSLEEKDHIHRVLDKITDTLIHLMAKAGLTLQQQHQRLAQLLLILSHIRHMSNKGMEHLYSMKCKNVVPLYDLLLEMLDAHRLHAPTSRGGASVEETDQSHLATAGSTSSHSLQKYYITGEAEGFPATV
T1 sequence (Q8NI77 1-898 I735V partner): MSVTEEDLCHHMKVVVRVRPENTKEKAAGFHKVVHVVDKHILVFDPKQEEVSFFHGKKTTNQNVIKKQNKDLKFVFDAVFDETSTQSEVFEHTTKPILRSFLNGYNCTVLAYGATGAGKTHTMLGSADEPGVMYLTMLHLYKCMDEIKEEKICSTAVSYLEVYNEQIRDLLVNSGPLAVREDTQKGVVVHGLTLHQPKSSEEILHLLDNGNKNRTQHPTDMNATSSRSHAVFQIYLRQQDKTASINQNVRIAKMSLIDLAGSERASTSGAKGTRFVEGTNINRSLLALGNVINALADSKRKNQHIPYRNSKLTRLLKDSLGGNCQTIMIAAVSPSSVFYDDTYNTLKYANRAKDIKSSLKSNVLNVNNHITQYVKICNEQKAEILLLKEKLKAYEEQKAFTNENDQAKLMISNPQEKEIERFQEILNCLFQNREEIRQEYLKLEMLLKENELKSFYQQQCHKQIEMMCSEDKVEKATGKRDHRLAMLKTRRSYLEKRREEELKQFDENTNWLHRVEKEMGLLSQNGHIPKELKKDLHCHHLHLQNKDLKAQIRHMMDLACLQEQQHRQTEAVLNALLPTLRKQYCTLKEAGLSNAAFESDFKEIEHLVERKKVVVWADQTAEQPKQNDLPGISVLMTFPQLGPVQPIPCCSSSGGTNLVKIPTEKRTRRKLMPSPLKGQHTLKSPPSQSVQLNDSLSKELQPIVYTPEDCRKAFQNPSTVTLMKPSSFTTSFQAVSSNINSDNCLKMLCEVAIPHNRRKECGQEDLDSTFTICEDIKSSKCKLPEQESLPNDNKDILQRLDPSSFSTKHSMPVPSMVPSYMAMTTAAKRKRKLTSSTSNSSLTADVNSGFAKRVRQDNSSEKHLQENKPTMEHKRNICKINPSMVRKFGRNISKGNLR
Experimental: as §4, §1
as §3, with “(Pierce, USA). […]” for “(Pierce, USA).”

ERα = assay: Co-immunoprecipitation of endogenous MS-KIF18A and ERα in MBA-15 cells; type: binding; conditions: MBA-15 cell lysates, antibodies directed against MS-KIF18A, FIG. 15
Experimental: as §4, §1, §3

For 17β-estrogen [17βE2], the “pERK1/2 following 17βE2 stimulation” value (ERK1/2 in MBA-15 cells [1]; 10^−8M 17β-estrogen for five minutes) was “increase” and the “activated ERK in anti-MS-KIF18A immunoprecipitate following estrogen treatment” value (ERK1/2 in MBA-15 cells [2]; 10^−8M 17β-estrogen five minutes, FIG. 16D lane 4) was “increase in activated ERK”.

`COc1cccc(-c2cc(=O)c3ccccc3o2)c1N` [PD98059] was tested, and the “17βE2-induced increase of pERK1/2 after pretreatment” value (ERK1/2 in MBA-15 cells [1]; pretreated with 25 μM PD98059 for 45 minutes) was “inhibited” and the “ERK activation in anti-MS-KIF18A immunoprecipitate after pretreatment” value (ERK1/2 in MBA-15 cells [2]; pretreated with 25 μM PD98059 45 minutes, FIG. 16D lane 2, FIG. 16E) was “reduced ERK activation”.

`C[C@]12CC[C@@H]3c4ccc(O)cc4C[C@@H](CCCCCCCCC[S+]([O-])CCCC(F)(F)C(F)(F)F)[C@H]3[C@@H]1CC[C@@H]2O` (some centres unmarked) [ICI 182,780] was tested, and the “17βE2-induced increase of pERK1/2 after pretreatment” value (ERK1/2 in MBA-15 cells [1]; pretreated with ICI 182,780 10^−6M for 45 minutes) was “inhibited” and the “ERK activation in anti-MS-KIF18A immunoprecipitate after pretreatment” value (ERK1/2 in MBA-15 cells [2]; pretreated with ICI 182,780 10^−6M 45 minutes, FIG. 16D lane 3, FIG. 16E) was “reduced ERK activation”.

B1: His-MS-KIF18A: His-tagged MS-KIF18A expressed from pcDNA3.1-His-C-MS-KIF18A in COS-7 cells (protein)
chain: T1 sequence (Q8NI77 1-898 I735V partner)
modifications: left off: small tags and cut ends
notes: His-tagged MS-KIF18A expressed from pcDNA3.1-His-C-MS-KIF18A in COS-7 cells
For B1, the “interaction with ERα 66 kDa (pull-down by anti-MS-KIF18A and anti-His antibodies)” value (ERα 66 kDa) was “interaction”.

B2: MS-KIF18A: novel kinesin KIF18A polypeptide of 898 amino acids expressed in mesenchymal stem cells, SEQ ID NO: 2 (protein, listed as Homo sapiens)
chain: T1 sequence (Q8NI77 1-898 I735V partner)
B2 was tested, and the “association with endogenous ERα (co-immunoprecipitation)” value (ERα) was “confirmed the association”.
